# Several values for one entry are separate records, joined by “and”; a condition that tells them apart may be missing. Equal values may be shown once.
# How the values were obtained:
# [1] = system: acetic acid-induced abdominal writhing; assay: acetic acid-induced abdominal writhing assay (peripheral analgesic); type: in vivo, mice; details: for % Inhibition/Protection / Writing Reflex ± SE: 10 mg/kg indomethacin mol equivalent i.p.; for Potency: % inhibition/protection compared to indomethacin; for Writing Reflex ± SE: number of writhing counted for 30 min
# Description: Peripheral analgesic testing
# Peripheral analgesic activity was measured by the standard acetic acid-induced writhing […]
# One hour after intraperitoneally (i,p.) administration of 10 mg kg−1 (mice body weight) […]
# distilled/sterile water by the aid of two drops of Tween 80, each mouse was injected with 0.1 ml of 1% acetic acid solution i.p. The control group animals were given sterile/distilled water only with few drops of Tween 80. Starting 5 min after the acetic acid injection, the number of muscular contractions in each mouse was counted for 30 min. A significant reduction in the number of writhing by any test compound as compared to control animals was considered as a positive analgesic response. Percentage protection was calculated according to equ. (3), where n stands for the average number of writhing in the control group and n' is the average number of writhing in the treated group. The % potency was calculated by equ. (4) (Table 2).
# % Inhibition/protection = n−n′ x100 … . (3)
# hot plate latency = assay: hot plate assay (central analgesic); type: in vivo, mice; details: for % Protection / Latency Period ± SE: 10 mg/kg indomethacin mol equivalent i.p.; for Latency Period ± SE: cutoff 15 sec; for Potency: at 120 min compared to indomethacin
# Description: The % potency was calculated by equ. (4) (Table 2). […]
# % Potency = % protection of the tested compound x 100 ……. (4) […]
# Central analgesic (hot plate) testing
# The standard hot plate technique was undertaken by in vivo standard hot plate test [ 1,2]. […]
# by placing them on a hot plate maintained at 55 ± 1 °C, 30 min. […]
# suspended in sterile/distilled water by the ai d of two drops of Tween 80, and recording the reaction time in seconds for forepaw licking or jumping. The control group animals were given sterile/distilled water only with few drops of Tween 80. The maximum cutoff time was chosen as 15 sec. to prevent tissue damage. Response latencies were measured 30, 60, 90 and 120 min. after the application. The % protection was calculated by equ. ( 5) where, T1, T0 are the latency time mean of the tested compound and control group, respectively (Table 3).
# [2] = system: carrageenan induced paw edema; assay: carrageenan-induced rat paw edema; type: in vivo; details: for % Inhibition of Edema ± Standard Error / Mean Edema Thickness: 10 mg/kg indomethacin mol equivalent i.p.; for Mean Edema Thickness: ± standard error
# Description: Anti-inflammatory activity screening
# The anti-inflammatory activity of the tested compounds was determined in-vivo by the acute carrageenan induced paw edema standard method in rats. Adult Wister rats of either sex (pregnant female animals were excluded) weighing 120–150 g were divided into 19 groups of 6 animals each. The tested compounds dissolved in DMSO, at a dose of 10 mg kg-1 (rat body […]
# inflammation. The control group was given DMSO only. Paw edema was induced by subcutaneous injection of freshly prepared 1% solution of carrageenan in saline (0.9%, 0.1 ml per rat) into subplantar tissue of the right hind paw of rats. The thickness of the paw was measured (in mm) after successive time intervals (1, 2, 3, 4 and 24 h) and compared with the initial hind paw thickness of each rat for determining the edema thickness. Data were collected, checked, revised and analyzed (SPSS 16). Quantitative variables from normal distribution were expressed as means ± SE “standard error”. The anti-inflammatory activity was expressed as percentage inhibition of edema thickness in treated animals in comparison with the control group according to eqn. (1) […]
# % Inhibition of edema= Vc-Vt x 100 … .. (1)
# Where, Vc and Vt are the means of edema paw thickness for the control and tested compound treated animal groups, respectively.
# The potency of the tested compounds was expressed as % inhibition of edema thickness […]
# % Potency = % inhibition of edema for the tested compound treated group x 100 … . (2)
smiles,measurement,setting,value
"CC(C)Cc1ccc(C(C)C(=O)OCc2cn(-c3ccc(F)cc3)nn2)cc1 (stereo not drawn) [Compound 5c, (1-(4-Fluorophenyl)-1H-1,2,3-triazol-4-yl)methyl 2-(4-isobutylphenyl)propanoate]",% Inhibition/Protection,[1],83.3%
same,Potency,[1],116.0%
same,Writing Reflex ± SE,[1],6.7 ± 0.5
same,% Protection,hot plate latency; after 30 min,112.1%
same,Latency Period ± SE,hot plate latency; after 30 min,14.17 ± 2.6 s
same,% Protection,hot plate latency; after 60 min,106.3%
same,Latency Period ± SE,hot plate latency; after 60 min,15.0 ± 2.3 s
same,% Protection,hot plate latency; after 90 min,67.3%
same,Latency Period ± SE,hot plate latency; after 90 min,14.91 ± 2.5 s
same,% Protection,"hot plate latency; after 120 min, 10 mg/kg",18%
same,Latency Period ± SE,hot plate latency; after 120 min,10.63 ± 1.8 s
same,% protection relative to its parent drug ibuprofen,hot plate latency; at 30 min,1.8 folds
same,Potency,hot plate latency,31.9
same,% Inhibition of Edema ± Standard Error,[2]; 1 h,0.00 ± 1.0%
same,% Inhibition of Edema ± Standard Error,[2]; 24 h,0.00 ± 0.2%
"COc1ccc(-n2cc(COC(=O)C(C)c3ccc(CC(C)C)cc3)nn2)cc1 (stereo not drawn) [Compound 5f, (1-(4-Methoxyphenyl)-1H-1,2,3-triazol-4-yl)methyl 2-(4-isobutylphenyl)propanoate]",% Inhibition/Protection,[1],80.0%
same,Potency,[1],111.4%
same,Writing Reflex ± SE,[1],8.0 ± 1.4
same,% Protection,hot plate latency; after 30 min,90.1%
same,Latency Period ± SE,hot plate latency; after 30 min,12.7 ± 0.9 s
same,% Protection,hot plate latency; after 60 min,56.8%
same,Latency Period ± SE,hot plate latency; after 60 min,11.40 ± 1.5 s
same,% Protection,hot plate latency; after 90 min,19.0%
same,Latency Period ± SE,hot plate latency; after 90 min,10.60 ± 1.9 s
same,% Protection,hot plate latency; after 120 min,0.2%
same,Latency Period ± SE,hot plate latency; after 120 min,9.03 ± 1.6 s
same,Potency,hot plate latency,0.4
same,% Inhibition of Edema ± Standard Error,[2]; 4 h,1.8 ± 0.7%
same,% Inhibition of Edema ± Standard Error,[2]; 24 h,2.5 ± 0.9%
"CC(C)Cc1ccc(C(C)C(=O)OCc2cn(-c3ccc([N+](=O)[O-])cc3)nn2)cc1 (stereo not drawn) [Compound 5g, (1-(4-Nitrophenyl)-1H-1,2,3-triazol-4-yl)methyl 2-(4-isobutylphenyl)propanoate]",% Inhibition/Protection,[1],65.0%
same,Potency,[1],90.5%
same,Writing Reflex ± SE,[1],14.0 ± 1.9
same,% Protection,hot plate latency; after 30 min,87.1%
same,Latency Period ± SE,hot plate latency; after 30 min,12.5 ± 2.1 s
same,% Protection,hot plate latency; after 60 min,73.2%
same,Latency Period ± SE,hot plate latency; after 60 min,12.59 ± 1.5 s
same,% Protection,hot plate latency; after 90 min,19.0%
same,Latency Period ± SE,hot plate latency; after 90 min,10.60 ± 2.6 s
same,% Protection,hot plate latency; after 120 min,28.1%
same,Latency Period ± SE,hot plate latency; after 120 min,11.54 ± 2.2 s
same,Potency,hot plate latency,49.7
same,% Inhibition of Edema ± Standard Error,[2]; 1 h,34.0 ± 1.8%
same,% Inhibition of Edema ± Standard Error,[2]; 24 h,0.00 ± 0.5%
"COc1ccc2c(c1)c(CC(=O)OCc1cn(-c3ccccc3Cl)nn1)c(C)n2C(=O)c1ccc(Cl)cc1 [Compound 8a, (1-(2-Chlorophenyl)-1H-1,2,3-triazol-4-yl)methyl 2-(1-(4-chlorobenzoyl)-5-methoxy-2-methyl-1H-indol-3-yl)acetate]",% Inhibition/Protection,[1],49.3%
same,Potency,[1],68.7%
same,Writing Reflex ± SE,[1],20.3 ± 1.8
same,% Protection,hot plate latency; after 30 min,82.5%
same,Latency Period ± SE,hot plate latency; after 30 min,12.19 ± 1.9 s
same,% Protection,hot plate latency; after 60 min,85.8%
same,Latency Period ± SE,hot plate latency; after 60 min,13.51 ± 1.7 s
same,% Protection,hot plate latency; after 90 min,55.4%
same,Latency Period ± SE,hot plate latency; after 90 min,13.85 ± 1.4 s
same,% Protection,hot plate latency; after 120 min,51.3%
same,Latency Period ± SE,hot plate latency; after 120 min,13.63 ± 1.3 s
same,Potency,hot plate latency,90.8
same,% Inhibition of Edema ± Standard Error,[2]; 1 h,0.00 ± 1.5%
same,Mean Edema Thickness,[2]; 1 h,0.863 ± 0.07 mm
same,% Inhibition of Edema ± Standard Error,[2]; 2 h,44.9 ± 1.7%
same,Mean Edema Thickness,[2]; 2 h,0.393 ± 0.08 mm
same,% Inhibition of Edema ± Standard Error,"[2]; 3 h, 10 mg/kg",32.5% and 32.5 ± 1.5%
same,Mean Edema Thickness,[2]; 3 h,0.488 ± 0.07 mm
same,% Inhibition of Edema ± Standard Error,[2]; 4 h,26.9 ± 1.1%
same,Mean Edema Thickness,[2]; 4 h,0.521 ± 0.03 mm
same,% Inhibition of Edema ± Standard Error,"[2]; 24 h, 10 mg/kg",33.3% and 33.3 ± 2.4%
same,Mean Edema Thickness,[2]; 24 h,0.614 ± 0.09 mm
same,% Potency,[2]; % inhibition of edema thickness relative to indomethacin at 3 h,40.1%
"COc1ccc2c(c1)c(CC(=O)OCc1cn(-c3ccc(Cl)cc3)nn1)c(C)n2C(=O)c1ccc(Cl)cc1 [Compound 8b, (1-(4-Chlorophenyl)-1H-1,2,3-triazol-4-yl)methyl 2-(1-(4-chlorobenzoyl)-5-methoxy-2-methyl-1H-indol-3-yl)acetate]",% Inhibition/Protection,[1],46.3%
same,Potency,[1],64.5%
same,Writing Reflex ± SE,[1],21.5 ± 1.5
same,% Protection,hot plate latency; after 30 min,2.4%
same,Latency Period ± SE,hot plate latency; after 30 min,6.84 ± 1.4 s
same,% Protection,hot plate latency; after 60 min,14.3%
same,Latency Period ± SE,hot plate latency; after 60 min,8.31 ± 1.9 s
same,% Protection,hot plate latency; after 90 min,11.2%
same,Latency Period ± SE,hot plate latency; after 90 min,9.91 ± 1.7 s
same,% Protection,hot plate latency; after 120 min,9.7%
same,Latency Period ± SE,hot plate latency; after 120 min,9.88 ± 2.0 s
same,Potency,hot plate latency,17.2
same,anti-inflammatory efficacy (in words),[2]; carrageenan-induced rat paw edema,no anti-inflammatory efficacy
"COc1ccc2c(c1)c(CC(=O)OCc1cn(-c3ccc(F)cc3)nn1)c(C)n2C(=O)c1ccc(Cl)cc1 [Compound 8c, (1-(4-Fluorophenyl)-1H-1,2,3-triazol-4-yl)methyl 2-(1-(4-chlorobenzoyl)-5-methoxy-2-methyl-1H-indol-3-yl)acetate]",% Inhibition/Protection,[1],41.3%
same,Potency,[1],57.5%
same,Writing Reflex ± SE,[1],23.5 ± 1.4
same,% Protection,hot plate latency; after 30 min,69.5%
same,Latency Period ± SE,hot plate latency; after 30 min,11.32 ± 0.8 s
same,% Protection,hot plate latency; after 60 min,29.2%
same,Latency Period ± SE,hot plate latency; after 60 min,9.39 ± 1.1 s
same,% Protection,hot plate latency; after 90 min,27.9%
same,Latency Period ± SE,hot plate latency; after 90 min,11.40 ± 1.6 s
same,% Protection,hot plate latency; after 120 min,48.1%
same,Latency Period ± SE,hot plate latency; after 120 min,13.34 ± 1.8 s
same,Potency,hot plate latency,85.1
same,% Inhibition of Edema ± Standard Error,[2]; 24 h,0.00 ± 1.0%
"COc1ccc2c(c1)c(CC(=O)OCc1cn(-c3ccc(C)cc3)nn1)c(C)n2C(=O)c1ccc(Cl)cc1 [Compound 8d, (1-(p-Tolyl)-1H-1,2,3-triazol-4-yl)methyl 2-(1-(4-chlorobenzoyl)-5-methoxy-2-methyl-1H-indol-3-yl)acetate]",% Inhibition/Protection,[1],62.5%
same,Potency,[1],87.0%
same,Writing Reflex ± SE,[1],15.0 ± 1.6
same,% Protection,hot plate latency; after 30 min,97.8%
same,Latency Period ± SE,hot plate latency; after 30 min,13.21 ± 2.5 s
same,% Protection,hot plate latency; after 60 min,74.0%
same,Latency Period ± SE,hot plate latency; after 60 min,12.65 ± 2.0 s
same,% Protection,hot plate latency; after 90 min,50.1%
same,Latency Period ± SE,hot plate latency; after 90 min,13.37 ± 1.6 s
same,% Protection,hot plate latency; after 120 min,48.6%
same,Latency Period ± SE,hot plate latency; after 120 min,13.39 ± 1.2 s
same,Potency,hot plate latency,86.0
same,% Inhibition of Edema ± Standard Error,[2]; 1 h,0.00 ± 0.8%
same,% Inhibition of Edema ± Standard Error,[2]; 3 h,0.00 ± 0.5%
same,% Inhibition of Edema ± Standard Error,[2]; 4 h,0.00 ± 0.6%
same,% Inhibition of Edema ± Standard Error,[2]; 24 h,0.00 ± 0.4%

# From publication PMC9965125, “New NSAID Conjugates as Potent and Selective COX-2 Inhibitors: Synthesis, Molecular Modeling and Biological Investigation” (Molecules, 2023)
